# From patent publication US6479528B1, “Methods for inhibiting or reversing tau filament formation polymerization” (Neuronautics, Inc., priority 2001, dated 2002)
# Values joined by “and” are separate entries in the source; they are usually repeats but may differ in a detail not shown here. Equal entries are not always repeated. “Also recorded” adds a separate entry of the source. Where two headings read alike, the source gives them in different places.
# How the values were obtained:
# recombinant human htau40 = target: T1, recombinant human htau40 (Homo sapiens, UniProt P10636); test: Thioflavin S fluorescence assay of arachidonic acid-induced tau polymerization; format: biochemical
# T1 construct: synthetic straight filaments prepared from recombinant full-length tau; made in house
# T1 sequence (P10636 1-441 isoform P10636-8): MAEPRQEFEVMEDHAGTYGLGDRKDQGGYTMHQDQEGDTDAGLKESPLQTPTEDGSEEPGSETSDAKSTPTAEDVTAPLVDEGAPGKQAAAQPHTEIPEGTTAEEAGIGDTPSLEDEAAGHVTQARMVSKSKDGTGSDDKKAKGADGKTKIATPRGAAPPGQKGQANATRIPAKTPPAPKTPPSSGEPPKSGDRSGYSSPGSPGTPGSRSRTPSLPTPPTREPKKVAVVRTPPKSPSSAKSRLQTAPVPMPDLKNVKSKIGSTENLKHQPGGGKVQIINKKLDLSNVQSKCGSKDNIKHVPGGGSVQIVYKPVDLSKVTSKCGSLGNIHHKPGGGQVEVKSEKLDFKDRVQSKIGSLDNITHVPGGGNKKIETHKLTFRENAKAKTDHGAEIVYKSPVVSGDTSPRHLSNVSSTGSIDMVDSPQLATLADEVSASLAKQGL
# Protocol: (§1) Tau Polymerization. Purified isoforms of tau were polymerized as described previously (Wilson et al., Am. J. Pathol. 150: 2181 (1997); King et al., Biochemistry 38: 14851 (1999); King et al., J. Neurochem. 74: 1749 (2000)). Briefly, 2-8 mM (final concentration) htau40 or mutant htau40^C291A, C322A was incubated at room temperature in the presence or absence of 2-[[4-(dimethylamino)phenyl]azo]-6-methoxylbenzothiazole (compound I′) with polymerization buffer (10 mM 4-[2-hydroxyethyl]-1-piperazineethanesulfonic acid, 100 mM NaCl, and 5 mM DTT) containing 4 mM thioflavin S. Polymerization was induced by the addition of arachidonic acid (75-100 mM) and continued until analyzed by fluorescence or electron microscopy assays described below. When present, compound I′ final concentration varied from 0.05-2 mM. Control reactions were normalized for DMSO vehicle, which was limited to 5% in all reactions.
# (§2) Fluorescence. Tau aggregation and disassembly were monitored by following thioflavin S fluorescence as described previously (King et al., 1999). Inhibitory activity of compound I′ was quantified by fitting the resultant data to the relationship
# A=A0+(Amax−A0)/[1+10^(log IC50−logX)]
# where A and A0 are blank-adjusted fluorescence in the presence and absence of inhibitor (at concentration X), respectively. IC50 values were calculated using the nonlinear regression algorithm of GRAPHPAD PRISM (GraphPad Software Inc.).
# Inhibition of tau Polymerization. […] 31, 2000. 2-[[4-(Dimethylamino)phenyl]azo]-6-methoxylbenzothiazole (compound I′), an uncharged (at physiological pH) member of the azo dye family that includes Congo Red, was identified as having inhibitory activity against htau40.
# The effect of compound I′ on polymerization of htau40 (2 mM) was quantified using a thioflavin S (2-4 mM) fluorescence assay (King et al., 1999).
# htau40^C291A, C322A = target: T2, htau40^C291A, C322A (Homo sapiens, UniProt P10636, C608A/C639A); test: Electron microscopy assay of tau filament formation; format: biochemical; settings: 200 nM compound (1:40 molar ratio relative to tau), 8 µM htau40^C291A
# T2 construct: synthetic straight filaments prepared from recombinant full-length tau; made in house
# T2 sequence (P10636 1-441 isoform P10636-8 C291A/C322A): as the sequence (P10636 1-441 isoform P10636-8) above, with C291A, C322A counted along it
# Protocol: as §1, with “Control reactions were normalized for DMSO vehicle, which was limited to 5% in all reactions.” left out
# Transmission Electron Microscopy. […] Four to six random images from each experimental condition were captured on film at either 13,000× or 22,000× magnification, digitized, calibrated, and imported into Optimas 6.5.1 for quantitation of filament length and number as described previously (King et al., 2000). Individual filaments defined as any object greater than 50 nm in its long axis were counted manually. […] Length distributions were quantified in 100 nm-wide bins, beginning with 50-150 nm lengths and continuing 151-250 nm, 251-350 nm, etc. […]
# [1] = target: T3, htau40^C291A, C322A filaments (Homo sapiens, UniProt P10636, C608A/C639A); test: Inhibitor-mediated depolymerization of preassembled synthetic tau filaments, electron microscopy time course; format: biochemical
# T3 construct: synthetic straight filaments prepared from recombinant full-length tau; made in house
# T3 sequence (P10636 1-441 isoform P10636-8 C291A/C322A): as the sequence (P10636 1-441 isoform P10636-8) above, with C291A, C322A counted along it
# Protocol: (§3) Tau Depolymerization. Solutions of purified htau40 or htau40^C291A, C322A (8 mM) were polymerized as described above for 3.5 hours. To assay dilution-mediated depolymerization, aliquots (50 ml) of reaction product were injected into a stirred quartz cuvette containing 1 ml of polymerization buffer with 4 mM thioflavin S and fluorescence decay followed as a function of time (room temperature). When present, arachidonic acid was 50 mM and tau was held at 2 mM.
# (§4) To assay inhibitor-mediated depolymerization, compound I′ was added to polymerized tau to a final concentration of 0.2 mM into two separate microcentrifuge tubes. Aliquots were removed from each sample after 10, 20, 30, 45, 60 minutes incubation and subjected to fluorescence or electron microscopy assays described below. Control (no compound I′) reactions were normalized for DMSO vehicle, which was limited to 5% in all reactions.
# Transmission Electron Microscopy. Aliquots (50 ml) of polymerization and depolymerization reactions were removed, fixed with glutaraldehyde (2%), and adsorbed (1 min) onto 300 mesh formvar/carbon-coated copper grids (Electron Microscopy Sciences; Ft. Washington, Pa.). […] Four to six random images from each experimental condition were captured on film at either 13,000× or 22,000× magnification, digitized, calibrated, and imported into Optimas 6.5.1 for quantitation of filament length and number as described previously (King et al., 2000). Individual filaments defined as any object greater than 50 nm in its long axis were counted manually. […] Length distributions were quantified in 100 nm-wide bins, beginning with 50-150 nm lengths and continuing 151-250 nm, 251-350 nm, etc.
# To determine whether compound I′-mediated tau depolymerization proceeded by an endwise mechanism, htau40^C291A, C322A (4 mM) was polymerized over a 3.5 hour period after which time compound I′ (200 nM) or DMSO vehicle alone was added and filament lengths were measured over a 1 hour “chase” by electron microscopy. […]
# [2] = target: T4, synthetic tau filaments (htau40) (Homo sapiens, UniProt P10636); test: Disassembly of preassembled synthetic tau filaments, dose response; format: biochemical; settings: filaments assembled 3 hours; read-out: IC50, dose response on preassembled tau filaments (data not shown)
# T4 construct: synthetic straight filaments prepared from recombinant full-length tau; made in house
# T4 sequence (P10636 1-441 isoform P10636-8): as the sequence (P10636 1-441 isoform P10636-8) above
# Protocol: as §3
# as §4, with “Control (no compound I′) reactions were normalized for DMSO vehicle, which was limited to 5% in all reactions.” left out
# as §2
# To determine whether compound I′ also could destabilize mature filaments and mimic the depolymerization observed in dilution experiments, tau filaments assembled in the presence of thioflavin S for 3 hours under standard conditions were incubated in the presence or absence of compound I′ (200 nM) and examined after various times by electron microscopy and fluorescence.
# [3] = tested on: Tau filaments isolated from AD brain; test: Disassembly of authentic tau filaments, electron microscopy; format: biochemical, human; settings: 2 mM compound; 20 min incubation; filaments 0.03 mg/ml
# Protocol: The ability of compound I′ (2 mM) to depolymerize authentic filaments (0.033 mg/ml) was assayed as above except that timepoints were limited to 0, 10, and 20 min post addition.
# Transmission Electron Microscopy. Aliquots (50 ml) of polymerization and depolymerization reactions were removed, fixed with glutaraldehyde (2%), and adsorbed (1 min) onto 300 mesh formvar/carbon-coated copper grids (Electron Microscopy Sciences; Ft. Washington, Pa.). The resultant grids were washed with water, stained (1 min) with 2% uranyl acetate (Electron Microscopy Sciences), washed again with water, blotted dry, and viewed in a Phillips CM 12 microscope operated at 65 kV. Four to six random images from each experimental condition were captured on film at either 13,000× or 22,000× magnification, digitized, calibrated, and imported into Optimas 6.5.1 for quantitation of filament length and number as described previously (King et al., 2000). Individual filaments defined as any object greater than 50 nm in its long axis were counted manually. Counts from each of the 4 to 6 random images per condition are reported as an average±standard deviation for both filament length and number. Length distributions were quantified in 100 nm-wide bins, beginning with 50-150 nm lengths and continuing 151-250 nm, 251-350 nm, etc.
# Authentic PHF Disassembly. […]
# Aβ1-40 = target: T5, Aβ1-40 (Homo sapiens, UniProt P05067); test: Aβ1-40 aggregation, turbidity at 350 nm; format: biochemical; settings: 20 μM (20 mM in the source) compound, stoichiometric with Aβ
# T5 construct: Stock solutions of Aβ1-40 (Bachem; Philadelphia, Pa.) were prepared in DMSO; purchased Bachem
# T5 sequence (P05067 672-711 limits assumed): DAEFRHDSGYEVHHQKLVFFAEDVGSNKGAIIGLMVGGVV
# Protocol: Aβ1-40 Aggregation. Stock solutions of Aβ (1 mM) were prepared in DMSO and filtered (0.2 mM cutoff). Aggregation was initiated by diluting the Aβb stock solution to 20 mM final concentration in aggregation buffer (150 mM NaCl, 10 mM 2-[N-morpholino]ethanesulfonic acid, pH 6.2; final volume 100 mL). Turbidity resulting from Aβ aggregation in the presence (20 mM final concentration) and absence of compound I′ was monitored as a function of time in a Beckman DU640B spectrophotometer at 350 nm versus a DMSO vehicle blank (Snyder et al., Biophys. J. 67: 1216 (1994); Evans et al., Proc. Natl. Acad. Sci. USA 92: 763 (1995)). Cuvettes were rapidly inverted before each reading.
# Selectivity of tau Polymerization Antagonism. […] To determine whether amyloid binding was accompanied by polymerization inhibitory activity, the ability of compound I′ to inhibit spontaneous Aβ1-40 assembly was examined. In the absence of ligand, Aβ1-40 (20 mM) polymerized spontaneously after a lag of 1 hour (FIG. 6).
# [4] = Charge state at physiological pH; format: physicochemical
# Ab fibrils = Ab fibrils (Homo sapiens, UniProt P05067); settings: cited from earlier work
# Sequence of Ab fibrils (P05067 672-713 limits assumed): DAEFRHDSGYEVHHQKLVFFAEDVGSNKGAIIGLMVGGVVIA
# [5] = approximate values given in the description, read-out: IC50, arachidonic acid polymerization of full length tau protein
# [6] = after 1 hour incubation with 200 nM compound
molecule,measurement,setting,value
"COc1ccc2nc(/N=N/c3ccc(N(C)C)cc3)sc2c1 [compound I′, 2-[[4-(dimethylamino)phenyl]azo]-6-methoxylbenzothiazole]",IC50 as % of the molar concentration of arachidonic acid,recombinant human htau40,< 0.1%
same,IC50,recombinant human htau40; [5],< 100 nM and ~60 nM
same,IC50,"recombinant human htau40; arachidonic acid-induced, 3.5 h, room temperature, % of DMSO vehicle control fluorescence, read-out: IC50, inhibition of htau40 polymerization (thioflavin S fluorescence)",54 ± 6 nM
same,"total filament number, % of control at 0.2 µM","htau40^C291A, C322A",14.2 ± 0.6%
same,"total filament number, % of control values","htau40^C291A, C322A",10-20%
same,initial first order rate of decrease of total filament length per field,[1]; 200 nM compound added to filaments polymerized 3.5 h,0.042 min⁻¹
same,"total filament length, % of vehicle only controls",[1]; [6],21±6%
same,"total filament number, % of vehicle only controls",[1]; [6],84±26%
same,IC50,[2],91 ± 13 nM
same,"total filament length, % of DMSO vehicle control",[3],14±9% and 10-50%
same,effect on Aβ1-40 polymerization / assembly kinetics,Aβ1-40,did not inhibit Aβ polymerization; also recorded: does not interfere with Aβ1-40 assembly; also recorded: did not alter Aβ1-40 assembly kinetics significantly
same,charge at physiological pH,[4],uncharged
"O=C1Nc2ccccc2/C1=N/NC(=O)c1cc2ccccc2cc1O [Compound III, 3-hydroxy-napthalene-2-carboxylic acid (2-oxo-1,2-dihydro-indol-3-ylidene)-hydrazide]",IC50,recombinant human htau40; [5],~600 nM
CCN(CCO)c1ccc(N=Nc2nc3ccc(OC)cc3s2)cc1 [2-[[4-(N-ethyl-N-β-hydroxyethylamino)phenyl]azo]-6-methoxybenzothiazole],IC50,recombinant human htau40; [5],~60 nM
CCC(=Cc1sc2ccc(OC)cc2[n+]1CCO)C=C1Sc2ccc(OC)cc2N1CCO [3-(2-hydroxy-ethyl)-2-{2-[3-(2-hydroxyl-ethyl)-5-methoxy-3H-benzothiazol-2-ylidenemethyl]-but-1-enyl}-5-methoxy-benzothiazol-3-ium],IC50,recombinant human htau40; [5],~40 nM
Cc1cc(N=Nc2c(O)ccc3ccccc23)c(CCCC(=O)O)s1 [4-[3-(2-hydroxy-naphthalen-1-ylazo)-5-methyl-thiophen-2-yl]-butyric acid],IC50,recombinant human htau40; [5],~700 nM
"Cc1ccc(N=Nc2ccc(-c3ccc(N=Nc4ccc(C)c(C(=O)O)c4O)cc3)cc2)c(O)c1C(=O)O [3-[4′-(3-carboxy-2-hydroxy4-methyl-cyclohexa-1,5-dienylazo)-biphenyl-4-ylazo]-2-hydroxy-6-methyl benzoic acid]",IC50,recombinant human htau40; [5],~400 nM
CCN(CC)c1ccc(N=Nc2nc3ccc(OC)cc3s2)cc1 [2-[[4-(didethylamino)phenyl]azo]-6-methoxybenzothiazole],IC50,recombinant human htau40; [5],~60 nM
COc1ccc2nc(N=Nc3ccc(N(C)c4ccccc4)cc3)sc2c1 [[4-(6-methoxy-benzothiazol-2-ylazo)phenyl]-methylphenyl amine],IC50,recombinant human htau40; [5],~60 nM
Nc1ccc(-c2nc3ccc(-c4nc5ccc(N)cc5[nH]4)cc3[nH]2)cc1 [Ro 90-7501],effect on Ab fibrils,Ab fibrils,inhibit polymerization and promote disaggregation
thioflavin S [reference compound],effect on tau polymerization at the concentration required for filament binding,recombinant human htau40; concentration about EC50 of binding,not sufficient to inhibit or reverse tau polymerization
